The source of these data is patent publication US6783949B1, “Processes for determining whether a test substance contains lipases or lipase inhibitors” (Aventis Pharma Deutschland GmbH, priority 1999, dated 2004).

The experiment addresses T1, lipases, preferably HSL (Rattus norvegicus, UniProt P15304).
T1 sequence (P15304 1-768 isoform P15304-2): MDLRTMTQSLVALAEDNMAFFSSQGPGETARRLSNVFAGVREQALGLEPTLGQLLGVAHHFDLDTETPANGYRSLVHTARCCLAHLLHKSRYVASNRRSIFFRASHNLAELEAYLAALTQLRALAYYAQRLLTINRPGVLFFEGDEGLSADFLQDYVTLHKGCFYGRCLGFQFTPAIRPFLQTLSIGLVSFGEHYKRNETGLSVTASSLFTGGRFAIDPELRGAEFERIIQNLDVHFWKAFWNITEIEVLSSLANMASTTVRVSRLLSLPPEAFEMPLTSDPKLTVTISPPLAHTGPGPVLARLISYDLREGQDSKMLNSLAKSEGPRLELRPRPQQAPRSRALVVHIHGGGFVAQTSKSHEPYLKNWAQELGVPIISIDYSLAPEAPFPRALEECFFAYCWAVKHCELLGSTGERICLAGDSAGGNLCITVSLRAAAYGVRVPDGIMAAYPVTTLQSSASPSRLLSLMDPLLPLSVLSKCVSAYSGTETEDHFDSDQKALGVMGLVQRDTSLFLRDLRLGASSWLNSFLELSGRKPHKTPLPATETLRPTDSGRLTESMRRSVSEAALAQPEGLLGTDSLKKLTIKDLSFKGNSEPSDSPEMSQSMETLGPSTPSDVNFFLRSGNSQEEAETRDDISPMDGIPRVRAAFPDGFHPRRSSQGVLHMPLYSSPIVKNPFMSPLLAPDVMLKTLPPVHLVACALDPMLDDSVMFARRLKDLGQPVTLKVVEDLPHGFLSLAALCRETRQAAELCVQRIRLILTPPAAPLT
Description: Synthesized NBD-acylglycerides as substrates of lipases. The class given is biochemical.

Consider `CCCCCC(=O)OCC(COC(=O)CCCCCCCCCCCNc1ccc([N+](=O)[O-])c2nonc12)OC(=O)CCCCC` (centres unmarked) [Compound (5), 2-Hexanoyloxy-3-[12-(7-nitrobenzo[1,2,5]oxadiazol-4-ylamino)-dodecanoyloxy]propyl hexanoate], for which the “Activity as substrate of lipases” value is “decrease in activity”. With `CCCCCCCCCCCCCCCC(=O)OCC(COC(=O)CCCCCCCCCCCNc1ccc([N+](=O)[O-])c2nonc12)OC(C)=O` (centres unmarked) [Compound (7), 2-Acetyloxy-3-[12-(7-nitrobenzo[1,2,5]oxadiazol-4-ylamino)-dodecanoyloxy]propyl hexadecanoate] the entry was “decrease in activity”; with `O=C(CCCCCCCCCCCNc1ccc([N+](=O)[O-])c2nonc12)OC[C@@H](O)CO` [(3a), (S)-2,3-Dihydroxypropyl 12-(7-nitrobenzo[1,2,5]oxadiazol-4-ylamino) dodecanoate], “identical biological activity”; with “2-Hydroxy-3-[12-(7-nitrobenzo[1,2,5]oxadiazol-4-ylamino)-odecanoyloxy]propyl hexadecanoate [Compound (6)]”, “decrease in activity”. Consider `O=C(CCCCCCCCCCCNc1ccc([N+](=O)[O-])c2nonc12)OC[C@H](O)CO` [Compound (3b), (R)-2,3-dihydroxypropyl 12-(7-nitrobenzo[1,2,5]oxadiazol-4-ylamino)dodecanoate], for which the “Activity as substrate of lipases” value is reported as “identical biological activity”.
